Data: US8524755B2 (priority 2009, dated 2013)

Key:
σ (ns) = assay: Binding σ (ns) (ag); design: species or system rat
Experimental: (§1) Radioligand binding assay methods utilized to measure the activity of compounds of the invention will be familiar to those skilled in the art. In each assay case, the assay components such as, for example, the cell-type, ligand, reference compound and the like, will be familiar to practitioners of such an assay.
(§2) Analysis and Expression of Results: Compounds of the invention were tested in the biochemical assays and percent inhibition of specific binding was determined. The specific ligand binding to the receptors is defined as the difference between the total binding and the nonspecific binding determined in the presence of an excess of unlabelled ligand. The results are expressed as a percent inhibition of control specific binding (100−((measured specific binding/control specific binding)×100)) obtained in the presence of test compounds.

Adenosine A3 (h) = target: T1, Adenosine A3 (h) (Homo sapiens, UniProt P0DMS8); assay: Binding A3 (h) (ag); settings: read-out: % Inhibition of Control Specific Binding @ 10 μM
T1 construct: expressed in transfected cells; host or cells: HEK-293 cells
T1 sequence (P0DMS8 1-318): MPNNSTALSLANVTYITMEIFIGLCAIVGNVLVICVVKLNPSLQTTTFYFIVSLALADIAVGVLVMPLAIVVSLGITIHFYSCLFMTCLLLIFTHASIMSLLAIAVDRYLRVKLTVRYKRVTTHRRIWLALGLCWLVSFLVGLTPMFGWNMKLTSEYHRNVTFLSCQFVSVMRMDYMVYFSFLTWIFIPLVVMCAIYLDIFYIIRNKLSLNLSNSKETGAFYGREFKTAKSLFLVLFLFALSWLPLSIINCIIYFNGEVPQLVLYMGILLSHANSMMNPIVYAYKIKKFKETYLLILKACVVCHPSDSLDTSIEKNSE
Experimental: as §1, §2

PDE3A (h) = target: T2, PDE3A (h) (Homo sapiens, UniProt Q14432); assay: Enzyme assay PDE3A (h); assay type: biochemical; settings: read-out: % Inhibition of Control Values @ 10 μM
T2 construct: host or cells: Sf9 cells
Text: (§3) The enzyme assays provided below will be familiar to those skilled in the art.
(§4) Analysis and Expression of Results: The results are expressed as a percent of control specific activity ((measured specific activity/control specific activity)×100) obtained in the presence of the test compounds.

Dopamine D1 (h) = target: T3, Dopamine D1 (h) (Homo sapiens, UniProt P21728); assay: Binding D1 (h) (aa); settings: read-out: % Inhibition of Control Specific Binding @ 10 μM
T3 construct: expressed in transfected cells; host or cells: CHO cells
Experimental: as §1, §2

[1] = target: T4, choline transporter (CHT1) (h) (Homo sapiens, UniProt Q9GZV3); assay: Binding choline transporter (CHT1) (h) (aa); settings: read-out: % Inhibition of Control Specific Binding @ 10 μM
T4 construct: expressed in transfected cells; host or cells: CHO cells
T4 sequence (Q9GZV3 1-580): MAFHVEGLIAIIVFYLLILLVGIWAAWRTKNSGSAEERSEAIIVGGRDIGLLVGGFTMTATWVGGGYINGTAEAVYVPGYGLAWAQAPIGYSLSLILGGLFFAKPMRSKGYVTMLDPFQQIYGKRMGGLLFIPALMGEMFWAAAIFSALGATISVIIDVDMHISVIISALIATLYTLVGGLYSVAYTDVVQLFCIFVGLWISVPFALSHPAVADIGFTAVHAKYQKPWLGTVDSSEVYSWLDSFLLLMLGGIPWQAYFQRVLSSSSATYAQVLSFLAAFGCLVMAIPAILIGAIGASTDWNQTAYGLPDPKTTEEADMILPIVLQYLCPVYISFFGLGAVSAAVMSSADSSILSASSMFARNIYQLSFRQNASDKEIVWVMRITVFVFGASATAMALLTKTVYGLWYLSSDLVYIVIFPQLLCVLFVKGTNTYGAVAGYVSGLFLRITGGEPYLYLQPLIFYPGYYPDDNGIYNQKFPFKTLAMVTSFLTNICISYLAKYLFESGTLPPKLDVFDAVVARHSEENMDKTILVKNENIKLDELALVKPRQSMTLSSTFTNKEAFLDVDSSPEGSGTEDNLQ
Experimental: as §1, §2

5-HT (ns) = assay: Binding 5-HT (ns) (ag); design: species or system rat
Experimental: as §1, §2

[2] = target: T5, Thyrotropin Releasing Hormone TRH1 (h) (Homo sapiens, UniProt P34981); assay: Binding TRH1 (h) (ag); settings: read-out: % Inhibition of Control Specific Binding @ 10 μM
T5 construct: expressed in transfected cells; host or cells: CHO cells
T5 sequence (P34981 1-398): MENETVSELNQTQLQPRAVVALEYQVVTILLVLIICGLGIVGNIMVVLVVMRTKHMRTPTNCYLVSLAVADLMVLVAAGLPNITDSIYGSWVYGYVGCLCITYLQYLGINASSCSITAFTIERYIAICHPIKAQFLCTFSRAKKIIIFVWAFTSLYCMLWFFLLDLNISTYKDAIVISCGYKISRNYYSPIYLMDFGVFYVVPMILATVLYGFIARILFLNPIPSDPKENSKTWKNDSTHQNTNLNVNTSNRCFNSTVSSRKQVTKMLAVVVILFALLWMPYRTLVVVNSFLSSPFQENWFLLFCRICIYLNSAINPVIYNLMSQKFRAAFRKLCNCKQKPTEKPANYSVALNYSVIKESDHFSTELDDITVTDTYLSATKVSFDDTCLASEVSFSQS
Experimental: as §1, §2

hERG = target: T6, hERG (Homo sapiens, UniProt Q12809); assay: Binding hERG (membrane preparation) (aa); settings: read-out: % Inhibition of Control Specific Binding @ 10 μM
T6 construct: expressed in transfected cells; host or cells: HEK-293 cells
Experimental: as §1, §2

5-HT transporter (h) = target: T7, 5-HT transporter (h) (Homo sapiens, UniProt P31645); assay: Binding 5-HT transporter (h) (aa); settings: read-out: % Inhibition of Control Specific Binding @ 10 μM
T7 construct: expressed in transfected cells; host or cells: CHO cells
Experimental: as §1, §2

KV channel = assay: Binding KV channel (aa); design: species or system rat
Experimental: as §1, §2

Neurokinin NK2 (h) = target: T8, Neurokinin NK2 (h) (Homo sapiens, UniProt P21452); assay: Binding NK2 (h) (ag); settings: read-out: % Inhibition of Control Specific Binding @ 10 μM
T8 construct: expressed in transfected cells; host or cells: CHO cells
T8 sequence (P21452 1-398): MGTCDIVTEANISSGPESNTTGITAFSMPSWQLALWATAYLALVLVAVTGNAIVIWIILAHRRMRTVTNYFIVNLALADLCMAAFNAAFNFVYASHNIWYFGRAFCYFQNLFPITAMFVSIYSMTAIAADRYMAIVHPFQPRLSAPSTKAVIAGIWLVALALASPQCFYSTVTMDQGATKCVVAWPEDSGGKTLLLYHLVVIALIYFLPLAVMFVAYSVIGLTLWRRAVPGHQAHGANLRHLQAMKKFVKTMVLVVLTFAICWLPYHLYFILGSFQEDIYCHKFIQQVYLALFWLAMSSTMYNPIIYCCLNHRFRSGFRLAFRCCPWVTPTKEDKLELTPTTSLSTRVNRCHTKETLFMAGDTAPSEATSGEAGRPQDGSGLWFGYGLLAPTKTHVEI
Experimental: as §1, §2

GABA transporter = assay: Binding GABA transporter (aa); design: species or system rat
Experimental: as §1, §2

GABA transaminase = target: T9, GABA transaminase (Rattus norvegicus, UniProt P50554); assay: Enzyme assay GABA transaminase; assay type: biochemical; settings: read-out: % Inhibition of Control Values @ 10 μM
T9 construct: rat brain; from tissue; host or cells: rat brain
Text: as §3, §4

P2Y = assay: Binding P2Y (ag); design: species or system rat
Experimental: as §1, §2

I2 = assay: Binding I2 (aa); design: species or system rat
Experimental: as §1, §2

T7 sequence (P31645 whole entry): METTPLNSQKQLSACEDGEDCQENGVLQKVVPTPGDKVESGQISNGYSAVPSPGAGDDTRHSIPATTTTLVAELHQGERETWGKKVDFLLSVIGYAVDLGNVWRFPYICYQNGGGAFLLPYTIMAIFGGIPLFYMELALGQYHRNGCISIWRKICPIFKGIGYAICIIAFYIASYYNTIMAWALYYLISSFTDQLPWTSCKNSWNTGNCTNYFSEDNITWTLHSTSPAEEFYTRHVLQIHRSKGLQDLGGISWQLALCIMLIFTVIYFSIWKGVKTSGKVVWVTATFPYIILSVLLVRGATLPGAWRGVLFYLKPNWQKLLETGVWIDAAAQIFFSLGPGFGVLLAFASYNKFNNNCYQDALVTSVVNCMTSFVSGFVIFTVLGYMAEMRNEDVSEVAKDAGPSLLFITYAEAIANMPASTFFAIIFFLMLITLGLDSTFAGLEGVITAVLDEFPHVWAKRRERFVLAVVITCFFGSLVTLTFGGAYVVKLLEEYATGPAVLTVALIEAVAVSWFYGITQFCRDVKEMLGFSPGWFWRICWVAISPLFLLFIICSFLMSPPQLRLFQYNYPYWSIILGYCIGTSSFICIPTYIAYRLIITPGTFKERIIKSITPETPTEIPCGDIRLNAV
T2 sequence (Q14432 whole entry): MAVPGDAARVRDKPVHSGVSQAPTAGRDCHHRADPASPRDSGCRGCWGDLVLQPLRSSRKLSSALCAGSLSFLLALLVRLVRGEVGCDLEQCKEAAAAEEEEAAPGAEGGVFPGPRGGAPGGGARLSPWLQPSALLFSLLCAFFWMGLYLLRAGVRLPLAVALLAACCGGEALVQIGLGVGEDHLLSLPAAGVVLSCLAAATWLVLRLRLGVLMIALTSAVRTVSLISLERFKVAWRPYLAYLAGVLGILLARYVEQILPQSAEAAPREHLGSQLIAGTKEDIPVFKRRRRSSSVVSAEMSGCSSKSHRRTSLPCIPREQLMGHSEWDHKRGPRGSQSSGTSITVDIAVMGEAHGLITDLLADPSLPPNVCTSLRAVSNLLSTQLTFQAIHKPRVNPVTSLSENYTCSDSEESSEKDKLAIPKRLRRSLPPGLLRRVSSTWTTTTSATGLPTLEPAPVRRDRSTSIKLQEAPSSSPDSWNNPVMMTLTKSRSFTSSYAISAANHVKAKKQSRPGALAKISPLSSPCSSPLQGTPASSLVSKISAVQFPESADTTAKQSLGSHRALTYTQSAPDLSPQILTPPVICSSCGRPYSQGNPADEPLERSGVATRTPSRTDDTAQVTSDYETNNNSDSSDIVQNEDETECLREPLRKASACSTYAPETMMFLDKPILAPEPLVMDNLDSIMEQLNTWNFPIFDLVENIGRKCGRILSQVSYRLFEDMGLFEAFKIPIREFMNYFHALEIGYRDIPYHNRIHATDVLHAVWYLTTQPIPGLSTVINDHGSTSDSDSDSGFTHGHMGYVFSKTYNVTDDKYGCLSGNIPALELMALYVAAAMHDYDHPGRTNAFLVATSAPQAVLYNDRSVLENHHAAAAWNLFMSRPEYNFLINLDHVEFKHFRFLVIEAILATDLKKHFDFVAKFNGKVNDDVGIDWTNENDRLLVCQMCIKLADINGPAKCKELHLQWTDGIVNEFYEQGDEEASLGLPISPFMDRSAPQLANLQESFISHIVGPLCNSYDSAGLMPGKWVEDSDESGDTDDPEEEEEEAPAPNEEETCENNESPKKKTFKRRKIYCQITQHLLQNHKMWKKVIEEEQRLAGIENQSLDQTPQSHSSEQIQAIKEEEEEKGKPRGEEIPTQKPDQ
T3 sequence (P21728 whole entry): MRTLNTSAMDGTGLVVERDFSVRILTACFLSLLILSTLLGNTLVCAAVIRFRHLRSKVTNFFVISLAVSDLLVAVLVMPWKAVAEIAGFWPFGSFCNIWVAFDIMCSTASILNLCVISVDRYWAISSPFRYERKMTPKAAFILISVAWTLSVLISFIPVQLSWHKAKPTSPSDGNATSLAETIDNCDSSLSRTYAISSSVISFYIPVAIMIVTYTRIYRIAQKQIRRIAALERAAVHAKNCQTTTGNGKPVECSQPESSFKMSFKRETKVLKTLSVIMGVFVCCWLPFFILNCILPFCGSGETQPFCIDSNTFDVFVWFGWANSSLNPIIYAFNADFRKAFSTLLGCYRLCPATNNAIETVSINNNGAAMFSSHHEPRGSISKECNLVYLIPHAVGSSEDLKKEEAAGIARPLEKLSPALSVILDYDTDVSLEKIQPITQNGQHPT
T9 sequence (P50554 28-500): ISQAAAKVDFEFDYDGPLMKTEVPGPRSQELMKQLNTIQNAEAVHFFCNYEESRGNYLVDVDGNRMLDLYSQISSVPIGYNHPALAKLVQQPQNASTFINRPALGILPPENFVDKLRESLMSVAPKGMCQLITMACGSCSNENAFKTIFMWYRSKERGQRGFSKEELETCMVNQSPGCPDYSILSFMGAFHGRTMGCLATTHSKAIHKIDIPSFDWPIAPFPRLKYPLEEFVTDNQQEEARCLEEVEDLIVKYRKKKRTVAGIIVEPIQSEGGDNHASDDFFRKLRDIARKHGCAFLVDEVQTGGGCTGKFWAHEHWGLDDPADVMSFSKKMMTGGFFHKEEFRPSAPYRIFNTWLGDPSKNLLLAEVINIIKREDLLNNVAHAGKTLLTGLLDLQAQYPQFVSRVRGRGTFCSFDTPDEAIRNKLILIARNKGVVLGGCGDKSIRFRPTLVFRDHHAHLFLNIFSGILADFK
T6 sequence (Q12809 whole entry): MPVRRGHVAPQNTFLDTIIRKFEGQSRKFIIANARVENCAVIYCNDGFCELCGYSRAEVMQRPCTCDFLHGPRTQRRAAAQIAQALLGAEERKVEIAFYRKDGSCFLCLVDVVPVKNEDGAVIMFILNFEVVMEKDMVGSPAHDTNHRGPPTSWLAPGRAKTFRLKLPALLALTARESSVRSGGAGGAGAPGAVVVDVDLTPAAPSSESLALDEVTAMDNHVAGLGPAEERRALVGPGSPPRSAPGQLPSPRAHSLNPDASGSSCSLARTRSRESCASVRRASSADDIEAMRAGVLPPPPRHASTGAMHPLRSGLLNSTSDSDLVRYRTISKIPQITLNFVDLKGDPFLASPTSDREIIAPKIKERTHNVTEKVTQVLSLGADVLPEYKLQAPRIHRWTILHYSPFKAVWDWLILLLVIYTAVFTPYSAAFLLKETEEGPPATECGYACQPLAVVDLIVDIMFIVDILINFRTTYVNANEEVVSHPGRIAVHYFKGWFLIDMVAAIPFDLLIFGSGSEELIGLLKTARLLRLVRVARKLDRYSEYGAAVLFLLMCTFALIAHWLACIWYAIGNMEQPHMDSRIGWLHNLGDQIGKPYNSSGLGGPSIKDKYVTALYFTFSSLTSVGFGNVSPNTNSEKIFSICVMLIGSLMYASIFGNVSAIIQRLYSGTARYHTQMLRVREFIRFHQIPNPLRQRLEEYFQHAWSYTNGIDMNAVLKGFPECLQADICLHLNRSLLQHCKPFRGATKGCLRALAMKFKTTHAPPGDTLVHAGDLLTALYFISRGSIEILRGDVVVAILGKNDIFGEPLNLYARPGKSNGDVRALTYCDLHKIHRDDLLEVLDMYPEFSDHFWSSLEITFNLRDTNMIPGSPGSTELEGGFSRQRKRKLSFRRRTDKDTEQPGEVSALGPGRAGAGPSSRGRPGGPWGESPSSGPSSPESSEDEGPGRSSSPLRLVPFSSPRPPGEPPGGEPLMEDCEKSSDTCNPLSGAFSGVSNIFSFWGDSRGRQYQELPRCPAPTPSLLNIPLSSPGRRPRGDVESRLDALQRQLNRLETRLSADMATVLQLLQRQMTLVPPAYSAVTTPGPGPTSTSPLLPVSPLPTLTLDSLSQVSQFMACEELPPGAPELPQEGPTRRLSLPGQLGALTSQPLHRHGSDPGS

Row | SMILES | % Inhibition of Control Specific Binding @ 10 μM (σ (ns)) [%] | inhibition at 10 µM (Adenosine A3 (h)) [%] | inhibition at 10 µM (PDE3A (h)) [%] | inhibition at 10 µM (Dopamine D1 (h)) [%] | inhibition at 10 µM [1] [%] | % Inhibition of Control Specific Binding @ 10 μM (5-HT (ns)) [%] | inhibition at 10 µM [2] [%] | inhibition at 10 µM (hERG) [%] | inhibition at 10 µM (5-HT transporter (h)) [%] | % Inhibition of Control Specific Binding @ 10 μM (KV channel) [%] | inhibition at 10 µM (Neurokinin NK2 (h)) [%] | % Inhibition of Control Specific Binding @ 10 μM (GABA transporter) [%] | inhibition at 10 µM (GABA transaminase) [%] | % Inhibition of Control Specific Binding @ 10 μM (P2Y) [%] | % Inhibition of Control Specific Binding @ 10 μM (I2) [%]
1 | CC1(C)C(=O)N(c2ccc(C#N)c(C(F)(F)F)c2)C(=S)N1c1ccc(C(=O)O)c(F)c1 [(MI), 4-(3-(4-cyano-3-(trifluoromethyl)phenyl)-5,5-dimethyl-4-oxo-2-thioxoimidazolidin-1-yl)-2-fluorobenzoic acid] | 20 | 69 | 3 | -18 | -16 | 21 | 18 | -39 | 1 | −2 | -6 | −16 | -7 | −19 | 28
2 | CC1(C)C(=O)N(c2ccc(C#N)c(C(F)(F)F)c2)C(=S)N1c1ccc(C(N)=O)c(F)c1 [(MII), 4-(3-(4-Cyano-3-(trifluoromethyl)phenyl)-5,5-dimethyl-4-oxo-2-thioxoimidazolidin-1-yl)-2-fluorobenzamide] | 39 | 17 | 0 | -14 | -22 | 14 | -4 | 7 | 16 | −3 | -3 | 7 | -5 | −2 | 22
3 | CC1(C)C(=O)N(c2ccc(C#N)c(C(F)(F)F)c2)C(=O)N1c1ccc(C(N)=O)c(F)c1 [(MIII), 4-(3-(4-cyano-3-(trifluoromethyl)phenyl)-5,5-dimethyl-2,4-dioxoimidazolidin-1-yl)-2-fluorobenzamide] | 34 | 11 | 4 | -17 | -13 | −12 | -5 | 8 | 13 | −2 | 0 | −35 | -2 | −1 | 20
4 | CNC(=O)c1ccc(N2C(=O)N(c3ccc(C#N)c(C(F)(F)F)c3)C(=O)C2(C)C)cc1F [(MIV), 4-(3-(4-cyano-3-(trifluoromethyl)phenyl)-5,5-dimethyl-2,4-dioxoimidazolidin-1-yl)-2-fluoro-N-methylbenzamide] | 50 | 50 | 2 | -17 | 10 | 6 | 0 | 10 | 18 | −4 | 2 | −24 | -1 | 0 | 8
